Assays:
[1] = target: Estrogen receptor (Ovis aries) (UniProt P49885+Q9TU15); experiment: Relative binding affinity for estrogen receptor in lamb uterus cytosol relative to estradiol; assay type: protein assay
MCF7 [2] = experiment: Cytostaticity against MCF-7 cells in the presence of 1 uMolar E2 (estradiol); assay type: functional, cell-based; details: Homo sapiens
MCF7 [3] = experiment: Cytotoxicity against MCF-7 cells in the absence of 1 uM E2 (estradiol); assay type: functional, Homo sapiens
MCF7 [4] = experiment: Cytotoxicity against MCF-7 cells in presence of 1 uM E2 (estradiol); assay type: functional, Homo sapiens
Estrogen receptor = Estrogen receptor (Homo sapiens, UniProt Q92731+P03372); details: mvln

Row | relative binding affinity (RBA) [1] | IC50 (MCF7 [2]) [nM] | IC50 (Estrogen receptor) [nM] | Compound | Cytotoxicity (MCF7 [3]) [µM] | Cytotoxicity (MCF7 [4]) [µM]
1 | 0.1 | 1100 | 3200 | CCCCC/C=C(\c1ccc(O)cc1)c1ccc(OCCN(CC)CC)cc1 | 2.7 | 3.2
2 |  | 2400 | 500 | CCN(CC)CCOc1ccc(/C(=C\C(C)C)c2ccc(O)cc2)cc1 | 9.2 | 9.4
3 |  | 700 | 6000 | CCCCCC=C(c1ccc(OCCN(CC)CC)cc1)c1ccc(OCCN(CC)CC)cc1 | 2.7 | 1.3
4 |  | 1600 | 1500 | CCCC/C=C(\c1ccc(O)cc1)c1ccc(OCCN(CC)CC)cc1 | 2.9 | 3
5 |  | 1800 | 1300 | CCN(CC)CCOc1ccc(/C(=C\Cc2ccccc2)c2ccc(O)cc2)cc1 | 3.2 | 4.3
6 |  | 1600 | 4700 | CCCCCCCC/C=C(\c1ccc(O)cc1)c1ccc(OCCN(CC)CC)cc1 | 3.6 | 3
7 |  | 4200 | 2100 | CC(C)N(CCOc1ccc(C(=C2CCCCC2)c2ccc(OCCN(C(C)C)C(C)C)cc2)cc1)C(C)C | 30 | 8
8 |  | 1600 | 900 | CCCCC/C=C(/c1ccc(O)cc1)c1ccc(OCCN(CC)CC)cc1 | 2.9 | 3.2
9 |  | 1600 | 3300 | CCCCC/C=C(\c1ccc(O)cc1)c1ccc(OCCN2CCCC2)cc1 | 2.9 | 2.9
10 |  | 1700 | 1700 | CCN(CC)CCOc1ccc(/C(=C/Cc2ccccc2)c2ccc(O)cc2)cc1 | 2.9 | 3
11 |  | 1700 | 3500 | CCCCCCCC/C=C(/c1ccc(O)cc1)c1ccc(OCCN(CC)CC)cc1 | 5.1 | 2.9
12 |  | 2400 | 1500 | CCCCC/C=C(/c1ccc(O)cc1)c1ccc(OCCN(C)C)cc1 | 8.5 | 9.3
13 |  | 7900 | 8000 | CCCCCCCCCCCCCC/C=C(/c1ccc(O)cc1)c1ccc(OCCN(CC)CC)cc1 | 30 | 30
14 |  | 1200 | 2500 | CCCCCC/C=C(\c1ccc(O)cc1)c1ccc(OCCN(CC)CC)cc1 | 2.8 | 3.8
15 |  | 8000 |  | CC/C(=C(\c1ccccc1)c1ccc(OCCN(C)C)cc1)c1ccccc1 [TAMOXIFEN] | 9.8 | 13
16 |  | 1700 | 1700 | CCN(CC)CCOc1ccc(/C(=C/C(C)C)c2ccc(O)cc2)cc1 | 8.4 | 8.8
17 |  | 1600 | 3100 | CC(C)C=C(c1ccc(OCCN(C(C)C)C(C)C)cc1)c1ccc(OCCN(C(C)C)C(C)C)cc1 | 3.6 | 4.5
18 |  | 1700 | 500 | CCCC/C=C(/c1ccc(O)cc1)c1ccc(OCCN(CC)CC)cc1 | 4.4 | 5.2
19 |  | 8000 | 9500 | CCCCCCCCCCCCCC/C=C(\c1ccc(O)cc1)c1ccc(OCCN(CC)CC)cc1 | 30 | 30
20 |  | 1600 | 1900 | CCCCCC/C=C(/c1ccc(O)cc1)c1ccc(OCCN(CC)CC)cc1 | 2.9 | 3
21 |  | 1700 | 1800 | CCCCC/C=C(\c1ccc(O)cc1)c1ccc(OCCN(C)C)cc1 | 2.9 | 3

Row | Compound | relative binding affinity (RBA) [1] | IC50 (MCF7 [2]) [nM] | IC50 (Estrogen receptor) [nM] | Cytotoxicity (MCF7 [3]) [µM] | Cytotoxicity (MCF7 [4]) [µM]
22 | CC/C(=C(\c1ccc(O)cc1)c1ccc(OCCN(C)C)cc1)c1ccccc1 |  | 8000 |  | 6 | 9.4
23 | CC(C)N(CCOc1ccc(C(=C2CCCCC2)c2ccc(O)cc2)cc1)C(C)C |  | 1800 | 200 | 3.8 | 5
24 | CCCC/C(CC)=C(/c1ccc(O)cc1)c1ccc(OCCN(CC)CC)cc1.CCCC/C(CC)=C(\c1ccc(O)cc1)c1ccc(OCCN(CC)CC)cc1 |  | 1000 | 150 | 2.8 | 2.8

From ChEMBL document CHEMBL1129985, “Cytotoxicity and antiestrogenicity of a novel series of basic diphenylethylenes” (J Med Chem, 1997)
